System: 'M2' seeds
Experiment: Hydroponic selection of M2 seeds with sulfonylurea herbicides
Assay type: in vivo, sunflower
Conditions: hydroponic beds
Experimental: ‘M2’ seeds were seeded in individual hydroponic beds described as “Large-Scale Hydroponic Screening System” in U.S. Pat. No. 5,084,082 and treated with sulfonylurea herbicides. For each treatment, 10,000 seeds were added per bed. […] Most of the treatments used thifensulfuron-methyl at 20, 40 or 50 μg/L or rimsulfuron at 40 or 80 μg/L. Five plants showing resistance to sulfonylurea herbicides were found during various selection experiments; these are identified in Table 2.

SMILES: COC(=O)c1cccc(C)c1S(=O)(=O)NC(=O)Nc1nc(OCC(F)(F)F)nc(N(C)C)n1 [Triflusulfuron-methyl, triflusulfuron-methyl]
- suitability as selection agent: insufficiently active on sunflower

— US6822146B2, “Sulfonylurea-tolerant sunflower line M7” (priority 2000, dated 2004)
